Test system: HEK293T cells carrying the ATF4 luciferase reporter
Assay: ATF4-Luc assay, in vitro model of Vanishing Cell White Matter Disease (VWMD)
Format: cell-based
Conditions: Homo sapiens, HEK-293T, 1 μg/mL tunicamycin, 7 hours, One Glo luminescence
Method in brief: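 Reporter cells were stably generated by retroviral transduction and puromycin selection, then seeded at 30,000 cells/well. Next day, cells received 1 μg/mL tunicamycin with 200 nM test compound for 7 h, and luciferase luminescence was read with a one-step reagent. Values reported as EC50.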

SMILES	EC50 [nM]
O=C(COc1ccc(Cl)c(F)c1)NC12CC(NC(=O)c3ccncc3F)(C1)C2 [Compound 817, N-{3-[2-(4-chloro-3-fluorophenoxy)acetamido]bicyclo[1.1.1]pentan-1-yl}-3-fluoropyridine-4-carboxamide]	> 2000
Cn1cc(C(=O)NC23CC(NC(=O)COc4ccc(Cl)c(F)c4)(C2)C3)ccc1=O [Compound 818, N-{3-[2-(4-chloro-3-fluorophenoxy)acetamido]bicyclo[1.1.1]pentan-1-yl}-1-methyl-6-oxo-1,6-dihydropyridine-3-carboxamide]	> 2000
CC(C)n1ccc(C(=O)NC23CC(NC(=O)COc4ccc(Cl)c(F)c4)(C2)C3)n1 [Compound 819, N-{3-[2-(4-chloro-3-fluorophenoxy)acetamido]bicyclo[1.1.1]pentan-1-yl}-1-(propan-2-yl)-1H-pyrazole-3-carboxamide]	250 to 1000
O=C(COc1ccc(Cl)c(F)c1)NC12CC(NC(=O)c3ccon3)(C1)C2 [Compound 820, N-{3-[2-(4-chloro-3-fluorophenoxy)acetamido]bicyclo[1.1.1]pentan-1-yl}-1,2-oxazole-3-carboxamide]	> 2000
Cn1cccc1C(=O)NC12CC(NC(=O)COc3ccc(Cl)c(F)c3)(C1)C2 [Compound 821, N-{3-[2-(4-chloro-3-fluorophenoxy)acetamido]bicyclo[1.1.1]pentan-1-yl}-1-methyl-1H-pyrrole-2-carboxamide]	> 2000
CC(=O)Nc1cncc(C(=O)NC23CC(NC(=O)COc4ccc(Cl)c(F)c4)(C2)C3)c1 [Compound 822, 5-acetamido-N-{3-[2-(4-chloro-3-fluorophenoxy)acetamido]bicyclo[1.1.1]pentan-1-yl}pyridine-3-carboxamide]	> 2000
Cn1nc(C(=O)NC23CC(NC(=O)COc4ccc(Cl)c(F)c4)(C2)C3)c2ccccc21 [Compound 823, N-{3-[2-(4-chloro-3-fluorophenoxy)acetamido]bicyclo[1.1.1]pentan-1-yl}-1-methyl-1H-indazole-3-carboxamide]	> 2000
CCc1noc(C)c1C(=O)NC12CC(NC(=O)COc3ccc(Cl)c(F)c3)(C1)C2 [Compound 824, N-{3-[2-(4-chloro-3-fluorophenoxy)acetamido]bicyclo[1.1.1]pentan-1-yl}-3-ethyl-5-methyl-1,2-oxazole-4-carboxamide]	> 2000
CCn1cc(C(=O)NC23CC(NC(=O)COc4ccc(Cl)c(F)c4)(C2)C3)c(C)n1 [Compound 825, N-{3-[2-(4-chloro-3-fluorophenoxy)acetamido]bicyclo[1.1.1]pentan-1-yl}-1-ethyl-3-methyl-1H-pyrazole-4-carboxamide]	250 to 1000
NC(=O)c1ccncc1C(=O)NC12CC(NC(=O)COc3ccc(Cl)c(F)c3)(C1)C2 [Compound 826, N^3-{3-[2-(4-chloro-3-fluorophenoxy)acetamido]bicyclo[1.1.1]pentan-1-yl}pyridine-3,4-dicarboxamide]	1000 to 2000
CS(=O)(=O)c1ccccc1C(=O)NC12CC(NC(=O)COc3ccc(Cl)c(F)c3)(C1)C2 [Compound 827, N-{3-[2-(4-chloro-3-fluorophenoxy)acetamido]bicyclo[1.1.1]pentan-1-yl}-2-(methanesulfonyl)benzamide]	> 2000
CSc1ncccc1C(=O)NC12CC(NC(=O)COc3ccc(Cl)c(F)c3)(C1)C2 [Compound 828, N-{3-[2-(4-chloro-3-fluorophenoxy)acetamido]bicyclo[1.1.1]pentan-1-yl}-2-(methylsulfanyl)pyridine-3-carboxamide]	> 2000
COc1cccc(C(=O)NC23CC(NC(=O)COc4ccc(Cl)c(F)c4)(C2)C3)n1 [Compound 829, N-{3-[2-(4-chloro-3-fluorophenoxy)acetamido]bicyclo[1.1.1]pentan-1-yl}-6-methoxypyridine-2-carboxamide]	50 to 250
CSCc1ccc(C(=O)NC23CC(NC(=O)COc4ccc(Cl)c(F)c4)(C2)C3)o1 [Compound 830, N-{3-[2-(4-chloro-3-fluorophenoxy)acetamido]bicyclo[1.1.1]pentan-1-yl}-5-[(methylsulfanyl)methyl]furan-2-carboxamide]	50 to 250
Cc1ccc(F)c(C(=O)NC23CC(NC(=O)COc4ccc(Cl)c(F)c4)(C2)C3)n1 [Compound 832, N-{3-[2-(4-chloro-3-fluorophenoxy)acetamido]bicyclo[1.1.1]pentan-1-yl}-3-fluoro-6-methylpyridine-2-carboxamide]	50 to 250
Cc1cnc2cc(C(=O)NC34CC(NC(=O)COc5ccc(Cl)c(F)c5)(C3)C4)nn2c1 [Compound 833, N-{3-[2-(4-chloro-3-fluorophenoxy)acetamido]bicyclo[1.1.1]pentan-1-yl}-6-methylpyrazolo[1,5-a]pyrimidine-2-carboxamide]	1000 to 2000
O=C(COc1ccc(Cl)c(F)c1)NC12CC(NC(=O)c3ccc4ncoc4c3)(C1)C2 [Compound 834, N-{3-[2-(4-chloro-3-fluorophenoxy)acetamido]bicyclo[1.1.1]pentan-1-yl}-1,3-benzoxazole-6-carboxamide]	250 to 1000
Cn1cc(-c2cc(C(=O)NC34CC(NC(=O)COc5ccc(Cl)c(F)c5)(C3)C4)on2)cn1 [Compound 835, N-{3-[2-(4-chloro-3-fluorophenoxy)acetamido]bicyclo[1.1.1]pentan-1-yl}-3-(1-methyl-1H-pyrazol-4-yl)-1,2-oxazole-5-carboxamide]	1000 to 2000
CCn1nc(C(=O)NC23CC(NC(=O)COc4ccc(Cl)c(F)c4)(C2)C3)cc1C [Compound 836, N-{3-[2-(4-chloro-3-fluorophenoxy)acetamido]bicyclo[1.1.1]pentan-1-yl}-1-ethyl-5-methyl-1H-pyrazole-3-carboxamide]	> 2000
Cc1nc(C(F)(F)F)c(C(=O)NC23CC(NC(=O)COc4ccc(Cl)c(F)c4)(C2)C3)s1 [Compound 837, N-{3-[2-(4-chloro-3-fluorophenoxy)acetamido]bicyclo[1.1.1]pentan-1-yl}-2-methyl-4-(trifluoromethyl)-1,3-thiazole-5-carboxamide]	> 2000
CSc1nccc(C(=O)NC23CC(NC(=O)COc4ccc(Cl)c(F)c4)(C2)C3)n1 [Compound 838, N-{3-[2-(4-chloro-3-fluorophenoxy)acetamido]bicyclo[1.1.1]pentan-1-yl}-2-(methylsulfanyl)pyrimidine-4-carboxamide]	50 to 250
O=C(COc1ccc(Cl)c(F)c1)NC12CC(NC(=O)c3ccccc3-n3cccn3)(C1)C2 [Compound 839, N-{3-[2-(4-chloro-3-fluorophenoxy)acetamido]bicyclo[1.1.1]pentan-1-yl}-2-(1H-pyrazol-1-yl)benzamide]	> 2000
Cc1c(-c2cc(C(=O)NC34CC(NC(=O)COc5ccc(Cl)c(F)c5)(C3)C4)no2)cnn1C [Compound 840, N-{3-[2-(4-chloro-3-fluorophenoxy)acetamido]bicyclo[1.1.1]pentan-1-yl}-5-(1,5-dimethyl-1H-pyrazol-4-yl)-1,2-oxazole-3-carboxamide]	1000 to 2000
Cn1c(C(=O)NC23CC(NC(=O)COc4ccc(Cl)c(F)c4)(C2)C3)cc2sccc21 [Compound 841, N-{3-[2-(4-chloro-3-fluorophenoxy)acetamido]bicyclo[1.1.1]pentan-1-yl}-4-methyl-4H-thieno[3,2-b]pyrrole-5-carboxamide]	250 to 1000
